How the values were obtained:
[1] = target: Carbonic anhydrase 2 (Homo sapiens, UniProt P00918); experiment: DRUGMATRIX: Carbonic Anhydrase II enzyme inhibition (substrate: 4-Nitrophenyl acetate (4-NPA)); format: tissue-based, Erythrocyte; settings: erythrocyte; Not Active = under 50% inhibition at 10 µM
[2] = target: 5-hydroxytryptamine receptor 2B (Homo sapiens, UniProt P41595); format: cell membranes, CHO-K1, Membrane; settings: for Ki: read-out: Ki; for all read-outs here: in other assays of this panel Not Active means under 50% inhibition at 10 µM
[3] = target: T1, Angiotensin-converting enzyme (Oryctolagus cuniculus, UniProt P12822); experiment: biochemical; format: tissue-based, Lung;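 note: enzymatic inhibition of angiotensin-converting enzyme measured with FAPGG as the substrate; in other assays of this panel Not Active means under 50% inhibition at 10 µM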
T1 sequence (P12822 whole entry): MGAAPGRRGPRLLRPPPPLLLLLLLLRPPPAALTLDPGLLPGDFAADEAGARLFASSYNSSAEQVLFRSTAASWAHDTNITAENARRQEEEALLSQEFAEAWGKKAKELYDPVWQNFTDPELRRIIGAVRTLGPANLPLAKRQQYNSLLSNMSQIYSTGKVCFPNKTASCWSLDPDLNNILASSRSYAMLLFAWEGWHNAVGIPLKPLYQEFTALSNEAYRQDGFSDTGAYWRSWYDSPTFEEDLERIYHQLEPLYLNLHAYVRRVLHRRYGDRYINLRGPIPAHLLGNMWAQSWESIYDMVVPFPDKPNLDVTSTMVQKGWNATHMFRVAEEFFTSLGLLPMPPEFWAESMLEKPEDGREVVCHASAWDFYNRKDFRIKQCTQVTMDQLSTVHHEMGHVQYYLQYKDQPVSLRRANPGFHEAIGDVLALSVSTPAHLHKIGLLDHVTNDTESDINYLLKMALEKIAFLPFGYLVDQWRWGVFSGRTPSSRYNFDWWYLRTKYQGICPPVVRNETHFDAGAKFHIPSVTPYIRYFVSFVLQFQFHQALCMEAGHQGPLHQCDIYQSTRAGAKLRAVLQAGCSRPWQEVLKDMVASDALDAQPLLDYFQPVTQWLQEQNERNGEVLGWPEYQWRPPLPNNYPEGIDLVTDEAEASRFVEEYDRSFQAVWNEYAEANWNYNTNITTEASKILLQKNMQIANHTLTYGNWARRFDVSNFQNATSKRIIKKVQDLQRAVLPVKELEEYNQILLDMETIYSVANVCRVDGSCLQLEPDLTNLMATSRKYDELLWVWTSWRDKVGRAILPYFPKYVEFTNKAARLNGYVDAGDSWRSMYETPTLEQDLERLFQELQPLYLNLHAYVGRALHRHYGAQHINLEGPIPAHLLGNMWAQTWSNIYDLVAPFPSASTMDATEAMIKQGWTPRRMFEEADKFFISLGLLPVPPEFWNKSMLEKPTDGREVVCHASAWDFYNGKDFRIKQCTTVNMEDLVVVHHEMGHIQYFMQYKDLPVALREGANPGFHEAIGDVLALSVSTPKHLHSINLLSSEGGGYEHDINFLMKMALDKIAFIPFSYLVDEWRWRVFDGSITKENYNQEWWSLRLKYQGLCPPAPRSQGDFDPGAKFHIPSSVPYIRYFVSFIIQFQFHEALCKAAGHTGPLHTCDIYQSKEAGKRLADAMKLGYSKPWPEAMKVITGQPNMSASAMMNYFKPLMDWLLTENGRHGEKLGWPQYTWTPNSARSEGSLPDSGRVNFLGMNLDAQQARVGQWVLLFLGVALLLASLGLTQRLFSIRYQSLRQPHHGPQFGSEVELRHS

[4] = target: Acetylcholinesterase (Homo sapiens, UniProt P22303); experiment: DRUGMATRIX: Acetylcholinesterase enzyme inhibition (substrate: acetylthiocholine); format: cell-based, HEK293; settings: hek293; Not Active = under 50% inhibition at 10 µM
[5] = target: cGMP-specific 3',5'-cyclic phosphodiesterase (Homo sapiens, UniProt O76074); experiment: DRUGMATRIX: Phosphodiesterase PDE5 enzyme inhibition (substrate: [3H]cGMP + cGMP); format: tissue-based, Platelet; settings: platelet; Not Active = under 50% inhibition at 10 µM
[6] = target: Mu-type opioid receptor (Homo sapiens, UniProt P35372); experiment: DRUGMATRIX: Opiate mu (OP3, MOP) radioligand binding (ligand: [3H] Diprenorphine); format: cell membranes, CHO-K1, Membrane; settings: cho-k1; Not Active = under 50% inhibition at 10 µM
Mu-type opioid receptor, sequence (P35372 whole entry): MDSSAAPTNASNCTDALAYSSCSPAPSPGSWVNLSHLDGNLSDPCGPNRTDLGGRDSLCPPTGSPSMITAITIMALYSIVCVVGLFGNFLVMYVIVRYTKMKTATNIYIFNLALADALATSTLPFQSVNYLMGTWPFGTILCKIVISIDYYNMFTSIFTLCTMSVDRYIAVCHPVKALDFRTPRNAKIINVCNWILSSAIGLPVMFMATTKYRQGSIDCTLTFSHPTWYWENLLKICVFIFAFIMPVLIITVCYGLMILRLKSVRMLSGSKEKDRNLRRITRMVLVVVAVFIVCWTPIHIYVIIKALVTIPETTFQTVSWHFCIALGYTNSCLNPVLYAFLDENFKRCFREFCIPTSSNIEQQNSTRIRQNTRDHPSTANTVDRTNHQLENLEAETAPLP

5-hydroxytryptamine receptor 2B, sequence (P41595 whole entry): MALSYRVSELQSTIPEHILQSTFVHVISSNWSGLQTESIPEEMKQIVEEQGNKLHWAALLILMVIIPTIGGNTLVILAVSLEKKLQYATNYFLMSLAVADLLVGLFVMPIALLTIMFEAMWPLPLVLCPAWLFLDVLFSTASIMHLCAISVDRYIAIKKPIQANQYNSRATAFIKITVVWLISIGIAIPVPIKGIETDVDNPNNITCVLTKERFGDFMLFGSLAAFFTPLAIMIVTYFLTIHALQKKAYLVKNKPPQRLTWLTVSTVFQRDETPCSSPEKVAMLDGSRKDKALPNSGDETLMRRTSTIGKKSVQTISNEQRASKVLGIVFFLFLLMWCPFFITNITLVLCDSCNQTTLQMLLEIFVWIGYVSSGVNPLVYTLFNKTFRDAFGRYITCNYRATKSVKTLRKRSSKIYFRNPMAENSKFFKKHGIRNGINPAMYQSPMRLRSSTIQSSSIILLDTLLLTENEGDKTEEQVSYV
Acetylcholinesterase, sequence (P22303 whole entry): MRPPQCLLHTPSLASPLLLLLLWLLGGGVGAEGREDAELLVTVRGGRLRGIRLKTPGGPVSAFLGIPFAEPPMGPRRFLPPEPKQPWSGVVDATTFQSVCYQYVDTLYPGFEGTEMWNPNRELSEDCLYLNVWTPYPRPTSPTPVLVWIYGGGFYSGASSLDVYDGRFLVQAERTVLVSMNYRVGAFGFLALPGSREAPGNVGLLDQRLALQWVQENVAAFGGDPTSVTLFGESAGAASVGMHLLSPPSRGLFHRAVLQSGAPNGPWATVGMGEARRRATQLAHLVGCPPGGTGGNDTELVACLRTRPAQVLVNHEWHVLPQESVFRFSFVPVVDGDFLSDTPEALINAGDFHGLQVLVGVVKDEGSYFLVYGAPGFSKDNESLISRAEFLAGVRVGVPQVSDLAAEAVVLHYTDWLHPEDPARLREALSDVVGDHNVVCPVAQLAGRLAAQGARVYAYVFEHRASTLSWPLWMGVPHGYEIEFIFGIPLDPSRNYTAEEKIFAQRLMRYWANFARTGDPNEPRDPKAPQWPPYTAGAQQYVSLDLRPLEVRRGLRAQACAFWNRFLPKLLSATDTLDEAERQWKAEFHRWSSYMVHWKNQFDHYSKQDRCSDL

SMILES | IC50 [1] | IC50 ([2]; cho-k1) | IC50 [3] | IC50 [4] | IC50 [5] | IC50 [6] | IC50 ([2]; read-out: IC50) | Ki [2]
CC(C)Cc1ccc([C@H](C)C(=O)O)cc1 [DEXIBUPROFEN] | Not Active | Not Active | Not Active | Not Active | Not Active | Not Active |  | 
COc1ccc(C[C@H](N)C(=O)N[C@H]2[C@@H](O)[C@H](n3cnc4c(N(C)C)ncnc43)O[C@@H]2CO)cc1 [PUROMYCIN] | Not Active | Not Active | Not Active | Not Active | Not Active | Not Active |  | 
CCC1(c2ccccc2)C(=O)NC(=O)NC1=O [PHENOBARBITAL] | Not Active | Not Active | Not Active | Not Active | Not Active | Not Active |  | 
O=C1c2ccccc2C(=O)C1c1ccccc1 [PHENINDIONE] | Not Active | Not Active | Not Active | Not Active | Not Active | Not Active |  | 
OC[C@H]1OC2C3[C@@H](CO)OC(O[C@H]4[C@H](O)[C@@H](O)[C@@H](O[C@H]5[C@H](O)[C@@H](O)[C@@H](O[C@H]6[C@H](O)[C@@H](O)[C@@H](O[C@H]7[C@H](O)[C@@H](O)[C@@H](O[C@H]8[C@H](O)[C@@H](O)[C@@H](O[C@H]9[C@H](O)[C@@H](O)C(OC1[C@H](O)[C@H]2O)O[C@@H]9CO)O[C@@H]8CO)O[C@@H]7CO)O[C@@H]6CO)O[C@@H]5CO)O[C@@H]4CO)[C@H](O)[C@H]3O | Not Active | Not Active | Not Active | Not Active | Not Active | Not Active |  | 
CO[C@H]1O[C@@H]2O[C@@]3(C)CC[C@H]4[C@H](C)CC[C@@H]([C@H]1C)[C@@]24OO3 | Not Active | Not Active | Not Active | Not Active | Not Active | Not Active |  | 
CC(C)Cn1cnc2c(N)nc3ccccc3c21 [IMIQUIMOD] | Not Active | Not Active | Not Active | Not Active | Not Active | Not Active |  | 
COc1cc(NC(C)CCCN)c2ncccc2c1 (configuration not stated) [PRIMAQUINE] | Not Active | Not Active | Not Active | Not Active | Not Active | Not Active |  | 
O=C(O)COC(=O)Cc1ccccc1Nc1c(Cl)cccc1Cl [ACECLOFENAC] | Not Active | Not Active | Not Active | Not Active | Not Active | Not Active |  | 
C#C[C@]1(O)CC[C@H]2[C@@H]3CCC4=CC(=O)CC[C@@H]4[C@H]3CC[C@@]21C [NORETHINDRONE] | Not Active | Not Active | Not Active | Not Active | Not Active | Not Active |  | 
CC(C)(C#N)c1cc(Cn2cncn2)cc(C(C)(C)C#N)c1 [ANASTROZOLE] | Not Active | Not Active | Not Active | Not Active | Not Active | Not Active |  | 
Cc1cc(C(C)(C)C)c(O)c(C)c1CC1=NCCN1 [OXYMETAZOLINE] | Not Active |  | Not Active | Not Active | Not Active | Not Active | 3060 nM | 1940 nM
O=C(Nc1ccc(Cl)c(Cl)c1)c1cc(Cl)cc(Cl)c1O [3,3',4',5-TETRACHLOROSALICYLANILIDE] | Not Active | Not Active | Not Active | Not Active | Not Active | Not Active |  | 
O=C(O)CO [GLYCOLIC ACID] | Not Active | Not Active | Not Active | Not Active | Not Active | Not Active |  | 
COC(=O)C[C@](O)(CCC(C)(C)O)C(=O)O[C@@H]1C(OC)=C[C@]23CCCN2CCc2cc4c(cc2[C@H]13)OCO4 [HARRINGTONINE] | Not Active | Not Active | Not Active | Not Active | Not Active | Not Active |  | 
CC(C)(c1ccc(O)cc1)c1ccc(O)cc1 [BISPHENOL A] | Not Active | Not Active | Not Active | Not Active | Not Active | Not Active |  | 
C[C@]12CC[C@@H](O)C[C@@H]1CC[C@@H]1[C@@H]2CC[C@]2(C)C(=O)CC[C@@H]12 [ANDROSTERONE] | Not Active | Not Active | Not Active | Not Active | Not Active | Not Active |  | 
COc1ccc(Cl)cc1C(=O)NCCc1ccc(S(=O)(=O)NC(=O)NC2CCCCC2)cc1 [GLYBURIDE] | Not Active | Not Active | Not Active | Not Active | Not Active | Not Active |  | 
CC(CN1c2ccccc2Sc2ccccc21)N(C)C (configuration not stated) [PROMETHAZINE] | Not Active |  | Not Active | Not Active | Not Active | Not Active | 68 nM | 43 nM
C[N+](C)(C)CCOP(=O)([O-])OC[C@H](O)CO | Not Active | Not Active | Not Active | Not Active | Not Active | Not Active |  | 
NCC(CC(=O)O)c1ccc(Cl)cc1 (configuration not stated) [BACLOFEN] | Not Active | Not Active | Not Active | Not Active | Not Active | Not Active |  | 
CC12CCC(CC1=O)C2(C)C (configuration not stated) [CAMPHOR] | Not Active | Not Active | Not Active | Not Active | Not Active | Not Active |  | 
CN(Cc1cc(Br)cc(Br)c1N)C1CCCCC1 [BROMHEXINE] | Not Active | Not Active | Not Active | Not Active | Not Active | Not Active |  | 
Cc1ccnc2c1NC(=O)c1cccnc1N2C1CC1 [NEVIRAPINE] | Not Active | Not Active | Not Active | Not Active | Not Active | Not Active |  | 
CCN1CCN(C(=O)N[C@@H](C(=O)N[C@@H]2C(=O)N3[C@@H]2SC(C)(C)[C@@H]3C(=O)O)c2ccccc2)C(=O)C1=O [PIPERACILLIN] | Not Active | Not Active | Not Active | Not Active | Not Active | Not Active |  | 
O=C(O)c1ccccc1 [BENZOIC ACID] | Not Active | Not Active | Not Active | Not Active | Not Active | Not Active |  | 
CC[C@H]1OC(=O)[C@H](C)[C@@H](O[C@H]2C[C@@](C)(OC)[C@@H](O)[C@H](C)O2)[C@H](C)[C@@H](O[C@@H]2O[C@H](C)C[C@H](N(C)C)[C@H]2O)[C@](C)(O)C[C@@H](C)C(=O)[C@H](C)[C@@H](O)[C@]1(C)O [ERYTHROMYCIN] | Not Active | Not Active | Not Active | Not Active | Not Active | Not Active |  | 
c1ccc2c(c1)Nc1ccccc1S2 [PHENOTHIAZINE] | Not Active | Not Active | Not Active | Not Active | Not Active | Not Active |  | 
Cl.NC[C@H]1CC[C@H](C(=O)Oc2ccc(CCC(=O)O)cc2)CC1 [CETRAXATE HYDROCHLORIDE] | Not Active | Not Active | Not Active | Not Active | Not Active | Not Active |  | 
O=c1[nH]c2ccccc2c2ccccc12 | Not Active | Not Active | Not Active | Not Active | Not Active | Not Active |  | 

From ChEMBL document CHEMBL1909046, “DrugMatrix in vitro pharmacology data”
